We go through one compound from US20110009474A1, “SIRTUIN BASED METHODS AND COMPOSITIONS FOR TREATING BETA-CATENIN-RELATED CONDITIONS” (President and Fellows of Harvard College, priority 2007, published 2011).

For this assay, the system named is β-catenin transcriptional activity (pTOPFLASH reporter) in 293T cells. In words: TOPFLASH β-catenin luciferase reporter assay in transfected 293T cells. The format is cell-based, human. The note with it: NAM added eight hours after transfection, harvested 24 h post-transfection, normalized to Renilla luciferase, FIG. 4F.

Structures are written as SMILES.

In the case of `NC(=O)c1cccnc1` [nicotinamide], the “luciferase reporter activity (pTOPFLASH β-catenin reporter)” value is reported as “increased luciferase reporter activity”.
